Values of other authors in patent US20260335319A1, “INJECTABLE COMPOSITIONS OF METOLAZONE” (CIPLA LIMITED, priority 2023, published 2026).
Where two headings read alike, the source gives them in different places.

Tests used:
[1] = relative to water

- absorption (metolazone, general): variable absorption
- bioavailability (metolazone, general): poor bioavailability
- absorption (oral immediate release tablet): erratic absorption
- bioavailability (oral immediate release tablet): variable bioavailability
SMILES: Cc1ccccc1N1C(=O)c2cc(S(N)(=O)=O)c(Cl)cc2NC1C (centres unmarked) [Metolazone, 7-chloro-1,2,3,4-tetrahydro-2-methyl-3-(2-methylphenyl)-4-oxo-6-quinazolinesulfonamide]
- solubility in alkali and organic solvents [1]: more soluble in alkali, and organic solvents
